For orientation: ED50 means the dose that gives a 50% effect, or the effect in half of the subjects.

For one assay, the system named is S. pneumoniae, UC ®9912. In words: In vitro MIC by agar dilution, S. pneumoniae. To be noted: Streptococcus pneumoniae, UC9912, read-out: In vitro Activities: Minimum Inhibitory Concentrations, S. pneumoniae, UC 9912. The format is cell-based. From the text:
The oxazolidinone antibacterial agents of this invention have useful activity against a variety of organisms. The in vitro activity of compounds of this invention can be assessed by standard testing procedures such as the determination of minimum inhibitory concentration (MIC) by agar dilution as desribed in "Methods for Dilution Antimicrobial Susceptibility Tests for Bacteria That Grow Aerobically" (MFT) published January 1983 by the National Committee for Clinical Laboratory Standards, 771 East Lancaster Avenue, Villanova, Pa. 19084, USA. The activity of selected compounds of this invention against Staphylococcus aureus and Streptococcus pneumoniae are shown in Table 1.
On the technique in general: In agar dilution, organisms are placed on agar that contains the substance at set levels.

The next assay relates to S. aureus, UC ®9213. In words: In vivo Murine Assay procedure, ED50 (survival of infected mice). Further details: species or system Staphylococcus aureus; female mice. The procedure: Antimicrobial activity was tested in vivo using the Murine Assay procedure. Groups of female mice (six mice of 18-20 grams each) were injected intraperitoneally with bacteria which were thawed just prior to use and suspended in brain heart infusion with 4% brewers yeast UC9213 (Staphylococcus aureus) or brain heart infusion (Streptococcus species). Antibiotic treatment at six dose levels per drug was administered one hour and five hours after infection by either oral intubation or subcutaneous ("subcut.") routes. Survival was observed daily for six days. ED50 values based on mortality ratios were calculated using probit analysis. The subject compounds were compared against a well-known antimicrobial (Vancomycin) as a control.

Values after ≈ are worked out from the molar mass of the structure shown. Values joined by “and” are separate entries in the source; they are usually repeats but may differ in a detail not shown here. Equal entries are not always repeated.

For `CN[C@H](CC(C)C)C(=O)N[C@H]1C(=O)N[C@@H](CC(N)=O)C(=O)N[C@H]2C(=O)N[C@H]3C(=O)N[C@H](C(=O)N[C@H](C(=O)O)c4cc(O)cc(O)c4-c4cc3ccc4O)[C@H](O)c3ccc(c(Cl)c3)Oc3cc2cc(c3O[C@@H]2O[C@H](CO)[C@@H](O)[C@H](O)[C@H]2O[C@H]2C[C@](C)(N)[C@H](O)[C@H](C)O2)Oc2ccc(cc2Cl)[C@H]1O` [Vancomycin], in the assay on S. pneumoniae, UC ®9912, the MIC came out at 0.5 µg/mL (≈ 0.345 µM). Besides, the ED50 with S. aureus, UC ®9213 (Staphylococcus aureus, UC9213, 144 h, read-out: Control, ED50) was determined as 2.2 mg/kg. The “Control, ED50” value in the assay on S. aureus, UC ®9213 (vancomycin control run beside the Example of the same line, mice infected i.p. with S. aureus UC 9213, treatment 1 h and 5 h after infection, oral or subcutaneous, 8640 min) is 2.4 mg/kg and 2.0 mg/kg and 1.2 mg/kg.
